USRE40086E1, “Method for treating bacterial infection with novel 7-substituted-9-substituted amino 6-demethyl-6-deoxytetracyclines” (Wyeth Holdings Corporation, priority 1991, dated 2008)

How the values were obtained:
Format in all cases: cell-based
[1] = system: S. aureus UBMS 88-5 (tetM); assay: MIC, agar dilution; conditions: S. aureus UBMS 88-5 TetM; Table IA; unit assumed
[2] = system: S. aureus UBMS 88-4 (Sensitive); assay: MIC, agar dilution; conditions: S. aureus UBMS 88-4; Table IA; unit assumed
[3] = system: S. aureus UBMS 90-1 (tetM); assay: MIC, agar dilution; conditions: S. aureus UBMS 90-1 TetM; Table IA; unit assumed
[4] = system: S. aureus UBMS 90-2 (tetM); assay: MIC, agar dilution; conditions: S. aureus UBMS 90-2 TetM; Table IA; unit assumed
[5] = system: S. aureus UBMS 90-3 (Sensitive); assay: MIC, agar dilution; conditions: S. aureus UBMS 90-3; Table IA; unit assumed
[6] = system: S. aureus UBMS 88-7 (tetK); assay: MIC, agar dilution; conditions: S. aureus UBMS 88-7 TetK; Table IA; unit assumed
[7] = system: S. aureus IVES 2943 (meth. resistant); assay: MIC, agar dilution; conditions: S. aureus IVES 2943; Table IA; unit assumed
[8] = system: S. aureus IVES 1983 (meth. resistant); assay: MIC, agar dilution; conditions: S. aureus IVES 1983; Table IA; unit assumed
[9] = system: S. aureus ATCC 29213 (Sensitive); assay: MIC, agar dilution; conditions: S. aureus ATCC 29213; Table IA; unit assumed
[10] = system: S. aureus Smith (Sensitive); assay: MIC, agar dilution; conditions: S. aureus SMITH (MP); Table IA; unit assumed
[11] = system: S. haemolyticus AVAH 88-3; assay: MIC, agar dilution; conditions: S. hemolyticus AVHAH 88-3; Table IA; unit assumed
E. faecalis 12201 = assay: MIC, agar dilution; conditions: Enterococcus 12201; Table IA; unit assumed
E. faecalis ATCC 29212 = assay: MIC, agar dilution; conditions: E. faecalis ATCC 29212; Table IA; unit assumed
E. coli UBMS 88-1 (tetB) = assay: MIC, agar dilution; conditions: E. coli UBMS 88-1 TetB; Table IA; unit assumed
E. coli UBMS 89-1 (tetM) = assay: MIC, agar dilution; conditions: E. coli UBMS 89-1 TetM; Table IA; unit assumed
[12] = system: E. coli UBMS 89-2 (Sensitive); assay: MIC, agar dilution; conditions: E. coli UBMS 89-2 Tet Sens.; Table IA; unit assumed
E. coli ATCC 25922 = assay: MIC, agar dilution; conditions: E. coli ATCC 25922; Table IA; unit assumed
E. coli UBMS 90-4 (tetM) = assay: MIC, agar dilution; conditions: E. coli UBMS 90-4 TetM; Table IA; unit assumed
E. coli MC4100 Tet sens. = assay: MIC, agar dilution (Table IA); conditions: unit assumed
E. coli MC4100 TetB = assay: MIC, agar dilution (Table IA); conditions: unit assumed
E. coli PRP1 TetA = assay: MIC, agar dilution (Table IA); conditions: unit assumed
E. coli J3272 TetC = assay: MIC, agar dilution (Table IA); conditions: unit assumed
E. coli J2175 = assay: MIC, agar dilution (Table IA); conditions: unit assumed
E. coli BAJ9003 = assay: MIC, agar dilution (Table IA); conditions: unit assumed
E. coli UBMS 90-5 = assay: MIC, agar dilution (Table IA); conditions: unit assumed
E. coli #311 (MP) = assay: MIC, agar dilution (Table IA); conditions: unit assumed
E. coli J3272 TetD = assay: MIC, agar dilution (Table IA); conditions: unit assumed
S. mariescens FDOR 8733 = assay: MIC, agar dilution (Table IA); conditions: unit assumed
[13] = system: X. maltophilia NEMC 87210; assay: MIC, agar dilution (Table IA); conditions: unit assumed
[14] = system: Ps. acruginosa ATCC 27853; assay: MIC, agar dilution (Table IA); conditions: unit assumed
S. aureus NEMC 8769/89-4 = assay: MIC, agar dilution (Table IA); conditions: unit assumed
S. aureus ROSE (MP) = assay: MIC, agar dilution (Table IA); conditions: unit assumed

Structure (SMILES) | Antibacterial activity (MIC) [1] [µg/mL] | Antibacterial activity (MIC) [2] [µg/mL] | Antibacterial activity (MIC) [3] [µg/mL] | Antibacterial activity (MIC) [4] [µg/mL] | Antibacterial activity (MIC) [5] [µg/mL] | Antibacterial activity (MIC) [6] [µg/mL] | Antibacterial activity (MIC) [7] [µg/mL] | Antibacterial activity (MIC) [8] [µg/mL] | Antibacterial activity (MIC) [9] [µg/mL] | Antibacterial activity (MIC) [10] [µg/mL] | Antibacterial activity (MIC) [11] [µg/mL] | Antibacterial activity (MIC) (E. faecalis 12201) [µg/mL] | Antibacterial activity (MIC) (E. faecalis ATCC 29212) [µg/mL] | Antibacterial activity (MIC) (E. coli UBMS 88-1 (tetB)) [µg/mL] | Antibacterial activity (MIC) (E. coli UBMS 89-1 (tetM)) [µg/mL] | Antibacterial activity (MIC) [12] [µg/mL] | Antibacterial activity (MIC) (E. coli ATCC 25922) [µg/mL] | Antibacterial activity (MIC) (E. coli UBMS 90-4 (tetM)) [µg/mL] | Antibacterial activity (MIC) (E. coli MC4100 Tet sens.) [µg/mL] | Antibacterial activity (MIC) (E. coli MC4100 TetB) [µg/mL] | further results
CN(C)CCCC(=O)Nc1cc(N(C)C)c2c(c1O)C(=O)C1=C(O)[C@]3(O)C(=O)C(C(N)=O)=C(O)[C@@H](N(C)C)C3CC1C2.Cl.Cl (stereo partly drawn) [ZZ, [4S-(4alpha,12aalpha)]-4,7-Bis(dimethylamino)-9-[[4-(dimethylamino)-1-oxobutyl]amino]-1,4,4a,5,5a,6,11,12a-octahydro-3,10,12,12a-tetrahydroxy-1,11-dioxo-2-naphthacenecarboxamide dihydrochloride] | 8 | 2 | 8 | 4 | 2 | 16 | > 32 | > 32 | 2 | 2 | 8 | 8 | 4 | > 32 | 32 | 16 | 8 | 16 | 2 | > 32 | Antibacterial activity (MIC) (E. coli PRP1 TetA): > 32 µg/mL; Antibacterial activity (MIC) (E. coli J3272 TetC): 32 µg/mL; Antibacterial activity (MIC) (E. coli J2175): 16 µg/mL; Antibacterial activity (MIC) (E. coli BAJ9003): 1 µg/mL; Antibacterial activity (MIC) (E. coli UBMS 90-5): 16 µg/mL; Antibacterial activity (MIC) (E. coli #311 (MP)): 16 µg/mL; Antibacterial activity (MIC) (E. coli J3272 TetD): 4 µg/mL; Antibacterial activity (MIC) (S. mariescens FDOR 8733): > 32 µg/mL; Antibacterial activity (MIC) [13]: 32 µg/mL; Antibacterial activity (MIC) [14]: > 32 µg/mL; Antibacterial activity (MIC) (S. aureus NEMC 8769/89-4): 1 µg/mL; Antibacterial activity (MIC) (S. aureus ROSE (MP)): > 32 µg/mL
CN(C)CC(=O)Nc1cc(N(C)C)c2c(c1O)C(=O)C1=C(O)[C@]3(O)C(=O)C(C(=O)NCN4CCOCC4)=C(O)[C@@H](N(C)C)C3CC1C2 (stereo partly drawn) [GGG] | 0.12 | 0.12 | 0.25 | 0.12 | 0.12 | 1 | 2 | 2 | 0.25 | 0.12 | 0.5 | 0.12 | 0.06 | 0.25 | 0.12 | 0.25 | 0.12 | 0.25 | 0.06 | 0.25 | Antibacterial activity (MIC) (E. coli PRP1 TetA): 1 µg/mL; Antibacterial activity (MIC) (E. coli J3272 TetC): 1 µg/mL; Antibacterial activity (MIC) (E. coli J2175): 0.25 µg/mL; Antibacterial activity (MIC) (E. coli BAJ9003): 0.03 µg/mL; Antibacterial activity (MIC) (E. coli UBMS 90-5): 0.25 µg/mL; Antibacterial activity (MIC) (E. coli #311 (MP)): 0.25 µg/mL; Antibacterial activity (MIC) (E. coli J3272 TetD): 0.12 µg/mL; Antibacterial activity (MIC) (S. mariescens FDOR 8733): 4 µg/mL; Antibacterial activity (MIC) [13]: 0.5 µg/mL; Antibacterial activity (MIC) [14]: 8 µg/mL; Antibacterial activity (MIC) (S. aureus NEMC 8769/89-4): 0.25 µg/mL; Antibacterial activity (MIC) (S. aureus ROSE (MP)): 2 µg/mL
CN(C)CC(=O)Nc1cc(N(C)C)c2c(c1O)C(=O)C1=C(O)[C@]3(O)C(=O)C(C(=O)NCN4CCCCC4)=C(O)[C@@H](N(C)C)C3CC1C2 (stereo partly drawn) [HHH, [4S-(4alpha,12aalpha)]-4,7-Bis(dimethylamino)-9-([(dimethylamino)acetyl]amino]-1,4,4a,5,5a,6,11,12a-octahydro-3,10,12,12a-tetrahydroxy-1,11-dioxo-N-(1-piperadinylmethyl)-2-naphthacenecarboxamide] | 0.25 | 0.25 | 0.25 | 0.12 | 0.12 | 0.5 | 2 | 2 | 0.25 | 0.12 | 0.5 | 0.12 | 0.06 | 0.25 | 0.25 | 0.25 | 0.25 | 0.25 | 0.12 | 0.25 | Antibacterial activity (MIC) (E. coli PRP1 TetA): 2 µg/mL; Antibacterial activity (MIC) (E. coli J3272 TetC): 0.5 µg/mL; Antibacterial activity (MIC) (E. coli J2175): 0.25 µg/mL; Antibacterial activity (MIC) (E. coli BAJ9003): 0.03 µg/mL; Antibacterial activity (MIC) (E. coli UBMS 90-5): 0.25 µg/mL; Antibacterial activity (MIC) (E. coli #311 (MP)): 0.25 µg/mL; Antibacterial activity (MIC) (E. coli J3272 TetD): 0.12 µg/mL; Antibacterial activity (MIC) (S. mariescens FDOR 8733): 4 µg/mL; Antibacterial activity (MIC) [13]: 0.5 µg/mL; Antibacterial activity (MIC) [14]: 8 µg/mL; Antibacterial activity (MIC) (S. aureus NEMC 8769/89-4): 0.25 µg/mL; Antibacterial activity (MIC) (S. aureus ROSE (MP)): 2 µg/mL
